One may read the IC50 as the concentration at which inhibition is half-maximal.

SMILES strings stand for the structures.

These results are taken from patent US8420820B2, “Pyrrolopyridinylpyrimidin-2-ylamine derivatives” (Merck Patent GmbH, priority 2008, dated 2013).

The subject of one assay is A2780 (ovary). The experiment in a line: Tumour cell proliferation/vitality assay (Alamar Blue). The following applies: Homo sapiens, 96 h, A2780 cells, 4 days of cultivation with test substance. The assay is classed as cell-based. On the procedure:
In the present experiment description, the inhibition of tumour cell proliferation/tumour cell vitality by active ingredients is described.
The cells are sown in a suitable cell density in microtitre plates (96-well format) and the test substances are added in the form of a concentration series. After four further days of cultivation in serum-containing medium, the tumour cell proliferation/tumour cell vitality can be determined by means of an Alamar Blue test system.
The cells are cultivated in medium. At intervals of several days, the cells are detached from the culture dishes with the aid of trypsin solution and sown in suitable dilution in fresh medium. The cells are cultivated at 37° Celsius and 10% CO2.
A defined number of cells (for example 2000 cells) per culture/well in a volume of 180 μl of culture medium are sown in microtitre plates (96 well cell-culture plates) using a multichannel pipette. The cells are subsequently cultivated in a CO2 incubator (37° C. and 10% CO2).
The test substances are dissolved, for example, in DMSO and subsequently employed in corresponding concentration (if desired in a dilution series) in the cell culture medium. The dilution steps can be adapted depending on the efficiency of the active ingredients and the desired spread of the concentrations. Cell culture medium is added to the test substances in corresponding concentrations. The addition of the test substances to the cells can take place on the same day as the sowing of the cells. To this end, in each case 20 μl of substance solution from the predilution plate are added to the cultures/wells. The cells are cultivated for a further 4 days at 37° Celsius and 10% CO2.
In each case, 20 μl of Alamar Blue reagent are added per well, and the microtitre plates are incubated, for example, for a further seven hours in a CO2 incubator (at 37° C. and 10% CO2). The plates are measured in a reader with a fluorescence filter at a wavelength of 540 nm. The plates can be shaken gently immediately before the measurement.
The absorbance value of the medium control (no cells and test substances used) is subtracted from all other absorbance values. The controls (cells without test substance) are set equal to 100 percent, and all other absorbance values are set in relation thereto (for example in % of control):
IC50 values (50% inhibition) are determined with the aid of statistics programs, such as, for example, RS1.
Background: Resazurin is reduced to fluorescent resorufin, in cell work by metabolically active cells.

A further assay addresses T1, PDK1 (Homo sapiens, UniProt O15530).
T1 construct: His6 (N)
The experiment in a line: Test for the inhibition of PDK1 (flashplate, 33P-ATP). The assay is classed as biochemical. The following applies: His6-PDK1 3.4 nM, 4 μM ATP, 30° C., 60 min. In outline:
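His6-PDK1(1-50) at 3.4 nM with biotinylated peptide substrate (400 nM) and 4 μM ATP plus 33P-ATP, 60 min at 30° C. Incorporated radioactivity counted; blank from 100 nM staurosporin subtracted. Activity given as % of no-compound control; IC50 from dilution series.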

The test system of assay [1] is PDK1 kinase activity in PC3 cells (phospho-T308-PKB). The experiment in a line: Cellular testing of PDK1 kinase inhibitors in PC3 cells (Luminex, phospho-T308-PKB). The assay is classed as cell-based. The following applies: Homo sapiens, PC-3, 0.5 h, 30 min with test substance, serum-free, phospho-T308-PKB by Luminex, read-out: IC50 [PC3 P-PKB Thr308]. Put shortly:
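Serum-starved PC3 cells treated 30 min with compound (7-point dilution); lysates captured on anti-total-PKB Luminex beads, with phospho-T308-PKB detected by antibody. Signals corrected by 10 μM staurosporine blank, expressed as percent of 0.3% DMSO control, giving IC50.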

T1 sequence (O15530 51-556): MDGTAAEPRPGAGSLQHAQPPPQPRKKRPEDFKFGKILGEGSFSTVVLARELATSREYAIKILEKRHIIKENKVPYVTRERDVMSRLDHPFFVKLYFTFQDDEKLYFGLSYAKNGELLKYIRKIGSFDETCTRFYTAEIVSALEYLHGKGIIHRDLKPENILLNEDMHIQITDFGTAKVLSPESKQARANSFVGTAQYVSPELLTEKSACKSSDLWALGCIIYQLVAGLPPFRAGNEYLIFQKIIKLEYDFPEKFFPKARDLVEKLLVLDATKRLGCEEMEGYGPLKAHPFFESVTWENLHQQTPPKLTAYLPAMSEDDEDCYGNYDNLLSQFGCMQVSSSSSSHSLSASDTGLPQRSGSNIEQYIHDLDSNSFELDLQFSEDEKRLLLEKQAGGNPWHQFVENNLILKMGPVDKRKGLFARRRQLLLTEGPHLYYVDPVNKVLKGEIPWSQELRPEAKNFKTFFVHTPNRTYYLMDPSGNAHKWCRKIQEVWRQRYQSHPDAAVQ

For `CCc1cc(-c2c[nH]c3ncc(-c4cnn(CC5CCCO5)c4)cc23)nc(N)n1` (stereo not shown) [Compound A2, 4-ethyl-6-{5-[1-(tetrahydrofuran-2-ylmethyl)-1H-pyrazol-4-yl]-1H-pyrrolo[2,3-b]pyridin-3-yl}-pyrimidin-2-ylamine], the IC50 in the assay on A2780 (ovary) was 10 to 1000 nM; against PDK1, 10 to 1000 nM; in assay [1], 10000 to 20000 nM.

Consider `CCc1cc(-c2c[nH]c3ncc(-c4cnn(CCNC)c4)cc23)nc(N)n1` [Compound A3, 4-ethyl-6-{5-[1-(2-methylaminoethyl)-1H-pyrazol-4-yl]-1H-pyrrolo[2,3-b]pyridin-3-yl}pyrimidin-2-yl], for which the IC50 was in the range of 10 to 1000 nM with A2780 (ovary), 10 to 1000 nM on PDK1 and 10000 to 20000 nM in assay [1].

Consider `CCc1cc(-c2c[nH]c3ncc(-c4cnn(CCCN(C)C)c4)cc23)nc(N)n1` [Compound A4, 4-{5-[1-(3-dimethylaminopropyl)-1H-pyrazol-4-yl]-1H-pyrrolo[2,3-b]pyridin-3-yl}-6-ethylpyrimidin-2-ylamine], for which the IC50 with A2780 (ovary) fell in the range of 1000 to 10000 nM; on PDK1, 10 to 1000 nM; in assay [1], 1000 to 10000 nM.

`CCc1cc(-c2c[nH]c3ncc(-c4cnn(C5CCN(C)CC5)c4)cc23)nc(N)n1` [Compound A5, 4-ethyl-6-{5-[1-(1-methylpiperidin-4-yl)-1H-pyrazol-4-yl]-1H-pyrrolo[2,3-b]pyridin-3-yl}-pyrimidin-2-ylamine]: the IC50 was in the range of 10 to 1000 nM with A2780 (ovary), 10 to 1000 nM against PDK1 and 1000 to 10000 nM in assay [1].

As to `CCc1cc(-c2c[nH]c3ncc(-c4cnn(C5CCNCC5)c4)cc23)nc(N)n1` [Compound A6, 4-ethyl-6-[5-(1-piperidin-4-yl-1H-pyrazol-4-yl)-1H-pyrrolo[2,3-b]pyridin-3-yl]pyrimidin-2-ylamine], the IC50 in the assay on A2780 (ovary) lay in the range of 1000 to 10000 nM; against PDK1, 10 to 1000 nM; in assay [1], 10000 to 20000 nM.

Consider `CCc1cc(-c2c[nH]c3ncc(-c4cnn(CCN5CCCC5)c4)cc23)nc(N)n1` [Compound A7, 4-ethyl-6-{5-[1-(2-pyrrolidin-1-ylethyl)-1H-pyrazol-4-yl]-1H-pyrrolo[2,3-b]pyridin-3-yl}pyrimidin-2-ylamine], for which the IC50 is 10 to 1000 nM in the assay on A2780 (ovary), 10 to 1000 nM at PDK1 and 10000 to 20000 nM in assay [1].

On to `CCc1cc(-c2c[nH]c3ncc(-c4cnn(CCN5CCOCC5)c4)cc23)nc(N)n1` [Compound A8, 4-ethyl-6-{5-[1-(2-morpholin-4-ylethyl)-1H-pyrazol-4-yl]-1H-pyrrolo[2,3-b]pyridin-3-yl}pyrimidin-2-ylamine], for which the IC50 with A2780 (ovary) lay in the range of 1000 to 10000 nM; on PDK1, 10 to 1000 nM; in assay [1] it was 1000 to 10000 nM.

Take `CC(C)n1cc(-c2cnc3[nH]cc(-c4cc(C(C)(O)c5ccccc5)nc(N)n4)c3c2)cn1` (stereo not shown) [Compound A55, 1-{2-Amino-6-[5-(1-isopropyl-1H-pyrazol-4-yl)-1H-pyrrolo[2,3-b]pyridin-3-yl]-pyrimidin-4-yl}-1-phenylethanol]: the IC50 (in the assay with A2780 (ovary); against PDK1; in assay [1]) was 10 to 1000 nM in each case.

As to `CCC(O)(c1ccccc1)c1cc(-c2c[nH]c3ncc(-c4cnn(C(C)C)c4)cc23)nc(N)n1` (stereo not shown) [Compound A59, 1-{2-amino-6-[5-(1-isopropyl-1H-pyrazol-4-yl)-1H-pyrrolo[2,3-b]pyridin-3-yl]pyrimidin-4-yl}-1-phenylpropan-1-ol], the IC50 (in the assay on A2780 (ovary); at PDK1; in assay [1]) was 10 to 1000 nM in each case.

Consider `CCC[C@H](O)c1cc(-c2c[nH]c3ncc(-c4cnn(C(C)C)c4)cc23)nc(N)n1` [Compound A90, (S)-1-{2-Amino-6-[5-(1-isopropyl-1H-pyrazol-4-yl)-1H-pyrrolo[2,3-b]pyridin-3-yl]pyrimidin-4-yl}butan-1-ol], for which the results for the IC50 (with A2780 (ovary); against PDK1; in assay [1]) were 10 to 1000 nM, 10 to 1000 nM and 1000 to 10000 nM, respectively.

In the case of `CCC[C@@H](O)c1cc(-c2c[nH]c3ncc(-c4cnn(C(C)C)c4)cc23)nc(N)n1` [Compound A91, (R)-1-{2-Amino-6-[5-(1-isopropyl-1H-pyrazol-4-yl)-1H-pyrrolo[2,3-b]pyridin-3-yl]pyrimidin-4-yl}butan-1-ol], the IC50 (in the assay on A2780 (ovary); against PDK1; in assay [1]) was 10 to 1000 nM throughout.

On to `CC(C)C(O)c1cc(-c2c[nH]c3ncc(-c4cnn(C(C)C)c4)cc23)nc(N)n1` (stereo not shown) [Compound A102, 1-{2-Amino-6-[5-(1-isopropyl-1H-pyrazol-4-yl)-1H-pyrrolo[2,3-b]pyridin-3-yl]-pyrimidin-4-yl}-2-methylpropan-1-ol], for which the IC50 lay in the range of 1000 to 10000 nM in the assay with A2780 (ovary), 10 to 1000 nM against PDK1 and 1000 to 10000 nM in assay [1].

With `CC(C)n1cc(-c2cnc3[nH]cc(-c4cc([C@](C)(O)c5ccccc5)nc(N)n4)c3c2)cn1` [Compound A123, (R)-1-{2-Amino-6-[5-(1-isopropyl-1H-pyrazol-4-yl)-1H-pyrrolo[2,3-b]pyridin-3-yl]pyrimidin-4-yl}-1-phenylethanol], the IC50 (with A2780 (ovary); on PDK1; in assay [1]) was 10 to 1000 nM each time.

`CC(C)n1cc(-c2cnc3[nH]cc(-c4cc([C@@](C)(O)c5ccccc5)nc(N)n4)c3c2)cn1` [Compound A124, (S)-1-{2-Amino-6-[5-(1-isopropyl-1H-pyrazol-4-yl)-1H-pyrrolo[2,3-b]pyridin-3-yl]pyrimidin-4-yl}-1-phenylethanol]: the IC50 (with A2780 (ovary); at PDK1; in assay [1]) was 10 to 1000 nM throughout.

Regarding `CC(C)n1cc(-c2cnc3[nH]cc(-c4cc(C5(O)CCNCC5)nc(N)n4)c3c2)cn1` [Compound A125, 4-{2-Amino-6-[5-(1-isopropyl-1H-pyrazol-4-yl)-1H-pyrrolo[2,3-b]pyridin-3-yl]-pyrimidin-4-yl}piperidin-4-ol], the IC50 against PDK1 was in the range of 1000 to 10000 nM; in assay [1], 10000 to 20000 nM.

With `CCc1cc(-c2c[nH]c3ncc(-c4cnn(CC(=O)N5CCCc6ccccc65)c4)cc23)nc(N)n1` [Compound A128, 2-{4-[3-(2-Amino-6-ethylpyrimidin-4-yl)-1H-pyrrolo[2,3-b]pyridin-5-yl]pyrazol-1-yl}-1-(3,4-dihydro-2H-quinolin-1-yl)ethanone], the IC50 against PDK1 is 10 to 1000 nM; in assay [1], 1000 to 10000 nM.
